This is an account of results in patent US20090062253A1, “HETEROCYCLODIAZEPINE CANNABINOID RECEPTOR MODULATORS FOR TREATMENT OF DISEASE” (KALYPSYS, INC., priority 2007, published 2009).

Experiment [1] has as its target T1, human cannabinoid receptor type 1 (Homo sapiens, UniProt P21554).
T1 construct: purchased Perkin Elmer RBHCB1M; host or cells: HEK 293 EBNA cells
Briefly: Human CB1 Radioligand Binding Assay (basis of selectivity CB2 vs. CB1). The gist of the method:
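Filtration competition binding against [3H] CP-55,940 at its Kd, using membranes from HEK 293 EBNA cells expressing human CB1; 90 minutes at 30° C in 50 mM Tris-HCl pH 7.4, 2.5 mM EDTA, 5 mM MgCl2, 5.0 mg/ml BSA, 1% DMSO. Single point 10 uM or dose-response; 100 nM CP-55,940 defined 100% efficacy.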

The target of experiment [2] is T2, Human CB2 (Homo sapiens, UniProt P34972).
T2 construct: expressed in transfected cells; membrane preparation
As to the kind of experiment: Human CB2 Radioligand Binding Assay. Conditions: membranes from stably transfected CHO CB2 cells; competition with [3H] CP-55,940; read-out: CB2 Ligand Binding Asssay. The gist of the method: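 Filtration competition against [3H]CP-55,940 at its Kd on membranes from CHO cells stably expressing human CB2; compounds at 10 uM single point or dose-response, 1% DMSO. Buffer 50 mM Tris-HCl pH 7.4, EGTA, MgCl2, 5.0 mg/ml BSA; 90 min at 30° C, scintillation read; 100 nM CP-55,940 = 100%.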

T1 sequence (P21554 whole entry): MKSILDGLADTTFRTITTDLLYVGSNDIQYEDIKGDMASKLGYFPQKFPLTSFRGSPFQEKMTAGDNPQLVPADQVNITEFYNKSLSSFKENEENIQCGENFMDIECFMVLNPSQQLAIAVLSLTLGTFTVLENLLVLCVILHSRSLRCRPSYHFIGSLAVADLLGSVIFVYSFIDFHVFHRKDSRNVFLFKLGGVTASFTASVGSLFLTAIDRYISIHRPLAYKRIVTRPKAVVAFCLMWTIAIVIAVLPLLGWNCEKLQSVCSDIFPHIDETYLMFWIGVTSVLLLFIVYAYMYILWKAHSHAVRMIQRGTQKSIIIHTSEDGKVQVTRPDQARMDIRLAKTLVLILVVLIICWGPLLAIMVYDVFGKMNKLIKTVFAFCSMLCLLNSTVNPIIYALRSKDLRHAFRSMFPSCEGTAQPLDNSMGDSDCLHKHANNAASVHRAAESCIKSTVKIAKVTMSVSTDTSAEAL
T2 sequence (P34972 whole entry): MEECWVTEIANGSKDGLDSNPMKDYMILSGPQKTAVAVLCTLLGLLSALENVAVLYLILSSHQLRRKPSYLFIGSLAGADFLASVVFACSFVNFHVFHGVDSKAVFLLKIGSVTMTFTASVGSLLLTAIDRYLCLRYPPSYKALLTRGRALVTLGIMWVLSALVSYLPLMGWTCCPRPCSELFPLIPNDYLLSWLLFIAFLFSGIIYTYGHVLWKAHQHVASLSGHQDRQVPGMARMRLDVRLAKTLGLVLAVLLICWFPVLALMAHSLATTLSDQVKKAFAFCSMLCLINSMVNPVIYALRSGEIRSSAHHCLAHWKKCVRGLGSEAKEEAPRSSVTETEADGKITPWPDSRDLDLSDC

Take `CC(C)(C)c1ccc(C2c3nccn3CCCN2C(=O)c2ccc(F)cc2F)cc1` (stereo not shown) [Example 47, (9-(4-tert-Butylphenyl)-6,7-dihydro-5H-imidazo[1,2-a][1,4]diazepin-8(9H)-yl)(2,4-difluorophenyl)methanone]: the “Selectivity, CB2 vs. CB1” value in experiment [1] is given as “− (− indicates < 10-fold)”. Besides, the IC50 (radioligand displacement) in experiment [2] was less than 1000 nM.

In the case of `CC(C)(C)c1ccc(C2c3nccn3CCCN2C(=O)c2ccc(Cl)cc2Cl)cc1` (stereo not shown) [Example 48, (9-(4-tert-Butylphenyl)-6,7-dihydro-5H-imidazo[1,2-a][1,4]diazepin-8(9H)-yl)(2,4-dichlorophenyl)methanone], the “Selectivity, CB2 vs. CB1” value in experiment [1] was “− (− indicates < 10-fold)”. In addition, the IC50 (radioligand displacement) in experiment [2] is greater than 1000 nM.

Turning to `CC(C)(C)c1ccc(C2c3cccn3CCCN2C(=O)c2ccc(Cl)cc2Cl)cc1` (stereo not shown) [Example 49, (1-(4-tert-Butylphenyl)-4,5-dihydro-1H-pyrrolo[1,2-a][1,4]diazepin-2(3H)-yl)(2,4-dichlorophenyl)methanone], in experiment [1], the “Selectivity, CB2 vs. CB1” value was “− (− indicates < 10-fold)”. In addition, in experiment [2], the IC50 (radioligand displacement) is less than 1000 nM.

For `CC(C)(C)c1ccc(C2c3cccn3CCCN2C(=O)Cc2ccc(F)cc2)cc1` (stereo not shown) [Example 50, 1-(1-(4-tert-Butylphenyl)-4,5-dihydro-1H-pyrrolo[1,2-a][1,4]diazepin-2(3H)-yl)-2-(4-fluorophenyl)ethanone], the “Selectivity, CB2 vs. CB1” value in experiment [1] is “− (− indicates < 10-fold)”. The IC50 (radioligand displacement) in experiment [2] is less than 1000 nM.

As to `CC(C)(C)c1ccc(C2c3cccn3CCCN2C(=O)Cc2c(F)cccc2F)cc1` (stereo not shown) [Example 51, 1-(1-(4-tert-Butylphenyl)-4,5-dihydro-1H-pyrrolo[1,2-a][1,4]diazepin-2(3H)-yl)-2-(2,6-difluorophenyl)ethanone], in experiment [1], the “Selectivity, CB2 vs. CB1” value is “− (− indicates < 10-fold)”. For the same molecule, the IC50 (radioligand displacement) in experiment [2] was greater than 1000 nM.

Take `CC(C)(C)c1ccc(C2c3cccn3CCCN2C(=O)CN2CCOCC2)cc1` (stereo not shown) [Example 52, 1-(1-(4-tert-Butylphenyl)-4,5-dihydro-1H-pyrrolo[1,2-a][1,4]diazepin-2(3H)-yl)-2-morpholinoethanone]: the “Selectivity, CB2 vs. CB1” value in experiment [1] is reported as “− (− indicates < 10-fold)”. For the same molecule, the IC50 (radioligand displacement) in experiment [2] is greater than 1000 nM.

In the case of `CC(C)(C)c1ccc(C2c3cccn3CCCN2c2nc3ccccc3o2)cc1` (stereo not shown) [Example 53, 2-(1-(4-tert-Butylphenyl)-4,5-dihydro-1H-pyrrolo[1,2-a][1,4]diazepin-2(3H)-yl)benzo[d]oxazole], the “Selectivity, CB2 vs. CB1” value in experiment [1] is given as “− (− indicates < 10-fold)”. In addition, the IC50 (radioligand displacement) in experiment [2] is greater than 1000 nM.

As for `CC(C)(C)c1ccc(Cc2ccc3n2CCCN3c2nc3ccccc3o2)cc1` [Example 54, 2-(6-(4-tert-Butylbenzyl)-3,4-dihydropyrrolo[1,2-a]pyrimidin-1(2H)-yl)benzo[d]oxazole], the “Selectivity, CB2 vs. CB1” value in experiment [1] is given as “− (− indicates < 10-fold)”. Also, the IC50 (radioligand displacement) in experiment [2] is greater than 1000 nM.

In the case of `CC(C)(C)c1ccc(C2=C(C(=O)Nc3ccc(F)cc3F)CCn3cccc32)cc1` [Example 56, 8-(4-tert-Butylphenyl)-N-(2,4-difluorophenyl)-5,6-dihydroindolizine-7-carboxamide], the “Selectivity, CB2 vs. CB1” value in experiment [1] is “− (− indicates < 10-fold)”. Besides, the IC50 (radioligand displacement) in experiment [2] was greater than 1000 nM.

Regarding `CC(C)(C)c1ccc(C2=C(C(=O)Nc3ccc(Cl)cc3Cl)CCn3cccc32)cc1` [Example 57, 8-(4-tert-Butylphenyl)-N-(2,4-dichlorophenyl)-5,6-dihydroindolizine-7-carboxamide], in experiment [1], the “Selectivity, CB2 vs. CB1” value is “− (− indicates < 10-fold)”. In experiment [2], the IC50 (radioligand displacement) is greater than 1000 nM.

Consider `CC(C)(C)c1ccc(C2=C(C(=O)Nc3ccc(OC(F)(F)F)cc3)CCn3cccc32)cc1` [Example 58, 8-(4-tert-Butylphenyl)-N-(4-(trifluoromethoxy)phenyl)-5,6-dihydroindolizine-7-carboxamide], for which the “Selectivity, CB2 vs. CB1” value in experiment [1] is reported as “− (− indicates < 10-fold)”. In addition, the IC50 (radioligand displacement) in experiment [2] is greater than 1000 nM.

Regarding `CC(C)(C)c1ccc(C2=C(C(=O)Nc3ccc(F)c(F)c3)CCn3cccc32)cc1` [Example 59, 8-(4-tert-Butylphenyl)-N-(3,4-difluorophenyl)-5,6-dihydroindolizine-7-carboxamide], the “Selectivity, CB2 vs. CB1” value in experiment [1] is reported as “+ (+ indicates > 10-fold)”. In addition, in experiment [2], the IC50 (radioligand displacement) was less than 1000 nM.

For the molecule `CC(C)(C)c1ccc(C2=C(C(=O)Nc3ccc(Cl)cc3)CCn3cccc32)cc1` [Example 60, 8-(4-tert-Butylphenyl)-N-(4-chlorophenyl)-5,6-dihydroindolizine-7-carboxamide], in experiment [1], the “Selectivity, CB2 vs. CB1” value is given as “− (− indicates < 10-fold)”. The IC50 (radioligand displacement) in experiment [2] is less than 1000 nM.

For `CC(C)(C)c1ccc(C2=C(C(=O)Nc3ccc(F)cc3F)CCCn3cccc32)cc1` [Example 62, (E)-9-(4-tert-Butylphenyl)-N-(2,4-difluorophenyl)-6,7-dihydro-5H-pyrrolo[1,2-a]azepine-8-carboxamide], the “Selectivity, CB2 vs. CB1” value in experiment [1] is “− (− indicates < 10-fold)”. Moreover, the IC50 (radioligand displacement) in experiment [2] was less than 1000 nM.

With `CC(C)(C)c1ccc(C2=C(C(=O)Nc3ccc(Cl)cc3Cl)CCCn3cccc32)cc1` [Example 63, (E)-9-(4-tert-Butylphenyl)-N-(2,4-dichlorophenyl)-6,7-dihydro-5H-pyrrolo[1,2-a]azepine-8-carboxamide], the “Selectivity, CB2 vs. CB1” value in experiment [1] is on record as “− (− indicates < 10-fold)”. Besides, in experiment [2], the IC50 (radioligand displacement) was less than 1000 nM.

`CC(C)(C)c1ccc(C2=C(C(=O)Nc3ccc(C(F)(F)F)cc3)CCCn3cccc32)cc1` [Example 64, (E)-9-(4-tert-Butylphenyl)-N-(4-(trifluoromethyl)phenyl)-6,7-dihydro-5H-pyrrolo[1,2-a]azepine-8-carboxamide]: the “Selectivity, CB2 vs. CB1” value in experiment [1] is on record as “− (− indicates < 10-fold)”. For the same molecule, the IC50 (radioligand displacement) in experiment [2] is less than 1000 nM.

As to `CC(C)(C)c1ccc(C2=C(C(=O)Nc3ccc(F)c(F)c3)CCCn3cccc32)cc1` [Example 65, (E)-9-(4-tert-Butylphenyl)-N-(3,4-difluorophenyl)-6,7-dihydro-5H-pyrrolo[1,2-a]azepine-8-carboxamide], the “Selectivity, CB2 vs. CB1” value in experiment [1] is “+ (+ indicates > 10-fold)”. For the same molecule, the IC50 (radioligand displacement) in experiment [2] was less than 1000 nM.

As to `CC(C)(C)c1ccc(C2=C(C(=O)Nc3ccc(Cl)cc3)CCCn3cccc32)cc1` [Example 66, (E)-9-(4-tert-Butylphenyl)-N-(4-chlorophenyl)-6,7-dihydro-5H-pyrrolo[1,2-a]azepine-8-carboxamide], the “Selectivity, CB2 vs. CB1” value in experiment [1] is recorded as “+ (+ indicates > 10-fold)”. For the same molecule, in experiment [2], the IC50 (radioligand displacement) was less than 1000 nM.

On to `O=C(Nc1ccc(F)cc1F)C1=C(c2ccccc2)c2cccn2CCC1` [Example 73, (E)-N-(2,4-Difluorophenyl)-9-phenyl-6,7-dihydro-5H-pyrrolo[1,2-a]azepine-8-carboxamide], for which the “Selectivity, CB2 vs. CB1” value in experiment [1] is listed as “− (− indicates < 10-fold)”. Moreover, the IC50 (radioligand displacement) in experiment [2] was greater than 1000 nM.

For `O=C(Nc1ccc(C(F)(F)F)cc1)C1=C(c2ccccc2)c2cccn2CCC1` [Example 74, (E)-9-Phenyl-N-(4-(trifluoromethyl)phenyl)-6,7-dihydro-5H-pyrrolo[1,2-a]azepine-8-carboxamide], the “Selectivity, CB2 vs. CB1” value in experiment [1] was “− (− indicates < 10-fold)”. In addition, the IC50 (radioligand displacement) in experiment [2] is greater than 1000 nM.

Regarding `O=C(Nc1ccc(F)c(F)c1)C1=C(c2ccccc2)c2cccn2CCC1` [Example 75, (E)-N-(3,4-Difluorophenyl)-9-phenyl-6,7-dihydro-5H-pyrrolo[1,2-a]azepine-8-carboxamide], the “Selectivity, CB2 vs. CB1” value in experiment [1] is given as “− (− indicates < 10-fold)”. Moreover, the IC50 (radioligand displacement) in experiment [2] is less than 1000 nM.

Regarding `CC(C)(C)c1ccc(C2=C(C(=O)Nc3ccc(Cl)cc3)CCCn3cncc32)cc1` [Example 77, (E)-9-(4-tert-Butylphenyl)-N-(4-chlorophenyl)-6,7-dihydro-5H-imidazo[1,5-a]azepine-8-carboxamide], the “Selectivity, CB2 vs. CB1” value in experiment [1] is “− (− indicates < 10-fold)”. Further, the IC50 (radioligand displacement) in experiment [2] was greater than 1000 nM.

Turning to `CC(C)(C)c1ccc(C2=C(C(=O)Nc3ccc(F)cc3F)CCCn3cncc32)cc1` [Example 78, ((E)-9-(4-tert-Butylphenyl)-N-(2,4-difluorophenyl)-6,7-dihydro-5H-imidazo[1,5-a]azepine-8-carboxamide], the “Selectivity, CB2 vs. CB1” value in experiment [1] is reported as “− (− indicates < 10-fold)”. For the same molecule, the IC50 (radioligand displacement) in experiment [2] is greater than 1000 nM.

Consider `CC(C)(C)c1ccc(C2=C(C(=O)Nc3ccc(Cl)c(Cl)c3)CCCn3cncc32)cc1` [Example 79, (E)-9-(4-tert-Butylphenyl)-N-(3,4-dichlorophenyl)-6,7-dihydro-5H-imidazo[1,5-a]azepine-8-carboxamide], for which, in experiment [1], the “Selectivity, CB2 vs. CB1” value was “− (− indicates < 10-fold)”. The IC50 (radioligand displacement) in experiment [2] was less than 1000 nM.

In the case of `CC(C)(C)c1ccc(C2=C(C(=O)Nc3ccc(Cl)cc3Cl)CCCn3cncc32)cc1` [Example 80, (E)-9-(4-tert-Butylphenyl)-N-(2,4-dichlorophenyl)-6,7-dihydro-5H-imidazo[1,5-a]azepine-8-carboxamide], the “Selectivity, CB2 vs. CB1” value in experiment [1] is reported as “− (− indicates < 10-fold)”. Besides, the IC50 (radioligand displacement) in experiment [2] was greater than 1000 nM.

With `CC(C)(C)c1ccc(CC2=C(C(=O)Nc3ccc(Cl)cc3)CCCn3cncc32)cc1` [Example 82, (E)-9-(4-tert-Butylbenzyl)-N-(4-chlorophenyl)-6,7-dihydro-5H-imidazo[1,5-a]azepine-8-carboxamide], in experiment [1], the “Selectivity, CB2 vs. CB1” value was “− (− indicates < 10-fold)”. Moreover, the IC50 (radioligand displacement) in experiment [2] was greater than 1000 nM.
